Laboratory results: patent US10604554B2, “Double-acylated GLP-1 derivatives” (Novo Nordisk A/S, priority 2012, dated 2020)

How the values were obtained:
[1] = biological target: T1, human GLP-1 receptor (Homo sapiens, UniProt P43220); assay: GLP-1 receptor binding (SPA, displacement of 125I-GLP-1)
T1 construct: expressed in transfected cells; host or cells: BHK cells, clone FCW467-12A/KZ10-1 (parent line BHKTS13), further transfected with CRE luciferase
In short: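 Tracer [125I]-GLP-1(7-36)NH2 at 0.06 nM final competed on hamster stably transfected cell membranes captured by WGA SPA beads; 120 min, 30 °C, scintillation count.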

[2] = Pharmacokinetic (PK) study in rat; details: male, Sprague Dawley, in vivo, iv, 6 nmol/kg
[3] = Pharmacokinetic (PK) study in minipig; details: male, Göttingen, in vivo, iv
Description: The purpose of this study is to determine the protraction in vivo of the GLP-1 derivatives after i.v. administration to minipigs, i.e. the prolongation of their time of action. This is done in a pharmacokinetic (PK) study, where the terminal half-life of the derivative in question is determined. By terminal half-life is generally meant the period of time it takes to halve a certain plasma concentration, measured after the initial distribution phase.
Study A: Male Göttingen minipigs were obtained from Ellegaard Göttingen Minipigs (Dalmose, Denmark) approximately 7-14 months of age and weighing from approximately 16-35 kg were used in the studies. The minipigs were housed individually and fed restrictedly once or twice daily with SDS minipig diet (Special Diets Services, Essex, UK). After at least 2 weeks of acclimatisation two permanent central venous catheters were implanted in vena cava caudalis or cranialis in each animal. The animals were allowed 1 week recovery after the surgery, and were then used for repeated pharmacokinetic studies with a suitable wash-out period between successive GLP-1 derivative dosings.
The animals were fasted for approximately 18 h before dosing and from 0 to 4 h after dosing, but had ad libitum access to water during the whole period.
The GLP-1 derivatives were dissolved in 50 mM sodium phosphate, 145 mM sodium chloride, 0.05% tween 80, pH 7.4 to a concentration of usually from 20-60 nmol/ml. […] Blood samples (for example 0.8 ml) were collected in EDTA buffer (8 mM) and then centrifuged at 4° C. and 1942 G for 10 minutes.
Study B: Male Göttingen minipigs were obtained from Ellegaard Göttingen Minipigs (Dalmose, Denmark) approximately 5 months of age and weighing from approximately 9 kg were used in the studies. The minipigs were housed in pens with straw as bedding, six together in each pen and fed restrictedly once or twice daily with Altromin 9023 minipig diet (Chr. Petersen A/S, DK-4100 Ringsted) or Standard SMP(E) minipig diet (Special Diet Services (SDS), UK). The pigs were used for repeated pharmacokinetic studies with a suitable wash-out period between successive GLP-1 derivative dosings.
The GLP-1 derivatives were dissolved in 50 mM sodium phosphate, 145 mM sodium chloride, 0.05% tween 80, pH 7.4 to a concentration of usually from 20-60 nmol/ml. Intravenous injections (the volume corresponding to usually 2 nmol/kg, for example 0.1 ml/kg) of the compounds were given as intravenous injections via a Venflon inserted in an ear vein, while they are placed unanaesthetised in a sling. The dose volume was 0.1 ml/kg, and blood was sampled at predefined time points for up till 17 days post dosing (samples was taken with syringe from a jugular vein).
Individual plasma concentration-time profiles were analyzed by a non-compartmental model in Phoenix WinNonLin ver. […] (Pharsight Inc., Mountain View, Calif., USA), and the resulting terminal half-lives (harmonic mean) determined.

[4] = biological target: T1, human GLP-1 receptor; assay: In vitro potency (CRE luciferase; whole cells); type: cell-based; parameters: EC50/pM (ratio 1% HSA/0% HSA): unit not given here; details: for EC50: BHK cells
In short: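 Reporter: CRE-luciferase in BHK cells stably expressing human GLP-1R, 5×10^3 cells/well; compounds tested in buffer containing 0% or 1% HSA.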

[5] = Receptor binding affinity IC50 (low HSA), 0.001% HSA (low albumin)
[6] = In vitro potency (CRE luciferase) EC50 (0% HSA), 0% HSA

T1 sequence (P43220 24-463): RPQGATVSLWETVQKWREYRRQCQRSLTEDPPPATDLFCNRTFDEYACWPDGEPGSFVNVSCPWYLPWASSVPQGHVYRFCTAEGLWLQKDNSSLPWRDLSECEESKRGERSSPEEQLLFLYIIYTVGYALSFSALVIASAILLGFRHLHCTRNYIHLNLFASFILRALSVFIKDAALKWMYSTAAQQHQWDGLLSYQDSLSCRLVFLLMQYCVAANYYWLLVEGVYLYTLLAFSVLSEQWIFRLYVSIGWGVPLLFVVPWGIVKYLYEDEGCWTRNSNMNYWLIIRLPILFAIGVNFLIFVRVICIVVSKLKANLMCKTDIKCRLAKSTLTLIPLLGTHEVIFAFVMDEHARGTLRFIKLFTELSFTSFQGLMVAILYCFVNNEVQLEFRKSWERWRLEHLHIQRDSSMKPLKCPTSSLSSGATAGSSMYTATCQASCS

Compound	IC50 ([1]; Receptor binding affinity IC50 (high HSA), 2.0% HSA (high albumin)) [nM]	IC50 [1, 5] [nM]	half-life [2] [h]	half-life [3] [h]	EC50 [4, 6] [nM]	EC50 ([4]; In vitro potency (CRE luciferase) EC50 (1% HSA), 1% HSA) [nM]	EC50/pM (ratio 1% HSA/0% HSA) ([4]; ratio of EC50 at 1% HSA to EC50 at 0% HSA)
CC[C@H](C)[C@H](NC(=O)[C@H](Cc1ccccc1)NC(=O)[C@H](CCC(=O)O)NC(=O)[C@H](CCCCNC(=O)[C@H](CCCCNC(=O)[C@H](CCCCNC(=O)CC[C@H](NC(=O)CCCCCCCCCCOc1ccc(C(=O)O)cc1)C(=O)O)N(C)C)N(C)C)NC(=O)[C@H](C)NC(=O)[C@H](C)NC(=O)[C@H](CCC(N)=O)NC(=O)CNC(=O)[C@H](CCC(=O)O)NC(=O)[C@H](CC(C)C)NC(=O)[C@H](Cc1ccc(O)cc1)NC(=O)[C@H](CO)NC(=O)[C@H](CO)NC(=O)[C@@H](NC(=O)[C@H](CC(=O)O)NC(=O)[C@H](CO)NC(=O)[C@@H](NC(=O)[C@H](Cc1ccccc1)NC(=O)[C@@H](NC(=O)CNC(=O)[C@H](CCC(=O)O)NC(=O)C(C)(C)NC(=O)CCc1c[nH]cn1)[C@@H](C)O)[C@@H](C)O)C(C)C)C(=O)N[C@@H](C)C(=O)N[C@@H](Cc1c[nH]c2ccccc12)C(=O)N[C@@H](CC(C)C)C(=O)N[C@H](C(=O)N[C@@H](CCCNC(=N)N)C(=O)NCC(=O)N[C@@H](CCCNC(=N)N)C(=O)N[C@@H](CCCCNC(=O)[C@H](CCCCNC(=O)[C@H](CCCCNC(=O)CC[C@H](NC(=O)CCCCCCCCCCOc1ccc(C(=O)O)cc1)C(=O)O)N(C)C)N(C)C)C(=O)O)C(C)C [Example 29, N^ε26-[(2S)-6-[[(2S)-6-[[(4S)-4-carboxy-4-[11-(4-carboxyphenoxy)undecanoylamino]butanoyl]amino]-2-(dimethylamino)hexanoyl]amino]-2-(dimethylamino)hexanoyl], N^ε37-[(2S)-6-[[(2S)-6-[[(4S)-4-carboxy-4-[11-(4-carboxyphenoxy)undecanoylamino]butanoyl]amino]-2-(dimethylamino)hexanoyl]amino]-2-(dimethylamino)hexanoyl]-[Imp^7,Aib^8,Arg^34,Lys^37]-GLP-1-(7-37)-peptide]	56	0.55	19	82	0.0079	0.427	–
CC[C@H](C)[C@H](NC(=O)[C@H](Cc1ccccc1)NC(=O)[C@H](CCC(=O)O)NC(=O)[C@H](CCCCNC(=O)[C@@H](N)CCCCNC(=O)COCCOCCNC(=O)COCCOCCNC(=O)CC[C@H](NC(=O)CCCCCCCCCCOc1ccc(C(=O)O)cc1)C(=O)O)NC(=O)[C@H](C)NC(=O)[C@H](C)NC(=O)[C@H](CCC(N)=O)NC(=O)[C@H](CCC(=O)O)NC(=O)[C@H](CCC(=O)O)NC(=O)[C@H](CC(C)C)NC(=O)[C@H](Cc1ccc(O)cc1)NC(=O)[C@H](CO)NC(=O)[C@H](CO)NC(=O)[C@@H](NC(=O)[C@H](CC(=O)O)NC(=O)[C@H](CO)NC(=O)[C@@H](NC(=O)[C@H](Cc1ccccc1)NC(=O)[C@@H](NC(=O)CNC(=O)[C@H](CCC(=O)O)NC(=O)C(C)(C)NC(=O)[C@@H](N)Cc1c[nH]cn1)[C@@H](C)O)[C@@H](C)O)C(C)C)C(=O)N[C@@H](C)C(=O)N[C@@H](Cc1c[nH]c2ccccc12)C(=O)N[C@@H](CC(C)C)C(=O)N[C@H](C(=O)N[C@@H](CCCNC(=N)N)C(=O)NCC(=O)N[C@@H](CCCNC(=N)N)C(=O)N[C@@H](CCCCNC(=O)[C@@H](N)CCCCNC(=O)COCCOCCNC(=O)COCCOCCNC(=O)CC[C@H](NC(=O)CCCCCCCCCCOc1ccc(C(=O)O)cc1)C(=O)O)C(=O)O)C(C)C [Example 22]	–	0.26	15	59	0.0055	–	13
